Read-outs that look alike come from different tables or passages of the source.
Columns and labels:
tankyrase-1 [1] = target: T1, tankyrase-1 (Homo sapiens, UniProt O95271); assay: Continuous colorimetric PARP kinetic assay with ADP-ribose-pNP, tankyrase-1 active domain; format: biochemical
T1 construct: The SAM and PARP domain of tankyrase was subcloned into pGEX-5X-1; made in house; host or cells: E. coli Rosetta
T1 sequence (O95271 1030-1327): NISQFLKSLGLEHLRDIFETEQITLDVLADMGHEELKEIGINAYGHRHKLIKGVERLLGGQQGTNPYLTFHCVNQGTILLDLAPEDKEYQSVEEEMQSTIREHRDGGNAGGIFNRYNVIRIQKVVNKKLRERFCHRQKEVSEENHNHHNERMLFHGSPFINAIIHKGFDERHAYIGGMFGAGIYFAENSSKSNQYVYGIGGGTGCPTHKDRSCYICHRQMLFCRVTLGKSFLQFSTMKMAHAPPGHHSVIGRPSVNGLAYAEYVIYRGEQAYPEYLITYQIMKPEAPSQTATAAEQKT
Protocol: (§1) With the calorimetric substrate ADP-ribose-pNP in hand, a continuous calorimetric assay for PARP activity was developed and the kinetic parameters for three PARP isozymes were determined. In a 96-well plate, a range of concentrations of ADP-ribose-pNP in PARP assay buffer were incubated with either PARP-1 (DNase digested DNA was added to activate PARP-1), tankyrase-1 (refers to “active domain,” see Supporting Information), or VPARP (also refers to the “active domain”), and the optical density at 405 nm was measured every 60 seconds over a 2 hour time period. Change in absorbance was assessed in triplicate, and blanks containing 0 to 700 μM ADP-ribose-pNP in PARP assay buffer were also measured over the same time period. The absorbance of a range of p-nitrophenol concentrations was determined at 405 nm, and the slope of this calibration curve (see Supporting Information) was used to convert the absorbencies to moles of product generated; in this way the kinetic parameters for PARP-1, tankyrase-1, and VPARP were calculated (see Table 1 and FIG. 2).
Kinetics of VPARP and Tankyrase-1. The ADP-ribose-pNP colorimetric substrate was diluted from a 10 mM stock in PARP assay buffer to 1142.9 μM. From this stock, dilutions into PARP assay buffer were made in 15×1.7 mL tubes so that the volume was 490 μL. This was enough to perform the experiment in triplicate, with additional wells (no protein) to serve as blanks for each substrate concentration. The concentration of substrate in each tube was made such that 70 μL from each tube could be added to the wells of a 96 well plate. When each well was brought to the final volume of 100 μL, the desired final concentration was reached. See FIG. 2B and FIG. 5B for tank-ad and VPARP substrate concentrations, respectively. Concentrations ranged from 0 to 700 μM with a finer distribution at lower substrate concentrations.
The plate was divided in half with protein added to half the wells and the other half serving as blanks containing only PARP assay buffer and substrate. After adding 70 μL of substrate from each tube to 3 wells on the protein side or 3 wells of the blank side, 30 μL of PARP assay buffer was added to all the wells of the blank side. Next, 30 μL of the enzyme was added to each of the wells on the protein half of the plate to initiate the reaction, with a final concentration of tankyrase per well of 21.8 μM and the final concentration of VPARP per well of 19.8 μM. The plate was then read on a SpectraMax plus 384 UV/Vis plate reader (Molecular Devices), at 405 nm for 2 hours with observations performed once every minute. Mixing was conducted between observations.
(§2) Data analysis. […] Graphs were analyzed using Table Curve 2D.

VPARP = target: T2, VPARP (Homo sapiens, UniProt Q9UKK3); assay: Continuous colorimetric PARP kinetic assay with ADP-ribose-pNP, VPARP active domain; format: biochemical; conditions: substrate ADP-ribose-pNP, 405 nm
T2 construct: The plasmid with the catalytic domain of VPARP, pET28b-p193cat; made in house; host or cells: E. coli Rosetta
T2 sequence (Q9UKK3 369-573 limits assumed): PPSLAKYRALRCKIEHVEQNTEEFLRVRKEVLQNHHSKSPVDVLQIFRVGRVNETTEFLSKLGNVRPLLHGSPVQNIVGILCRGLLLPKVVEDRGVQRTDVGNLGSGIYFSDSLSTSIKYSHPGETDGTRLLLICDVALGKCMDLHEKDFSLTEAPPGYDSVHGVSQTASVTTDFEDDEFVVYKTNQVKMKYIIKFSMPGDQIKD
Protocol: (§3) With the calorimetric substrate ADP-ribose-pNP in hand, a continuous calorimetric assay for PARP activity was developed and the kinetic parameters for three PARP isozymes were determined. In a 96-well plate, a range of concentrations of ADP-ribose-pNP in PARP assay buffer were incubated with either PARP-1 (DNase digested DNA was added to activate PARP-1), tankyrase-1 (refers to “active domain,” see Supporting Information), or VPARP (also refers to the “active domain”), and the optical density at 405 nm was measured every 60 seconds over a 2 hour time period. Change in absorbance was assessed in triplicate, and blanks containing 0 to 700 μM ADP-ribose-pNP in PARP assay buffer were also measured over the same time period. The absorbance of a range of p-nitrophenol concentrations was determined at 405 nm, and the slope of this calibration curve (see Supporting Information) was used to convert the absorbencies to moles of product generated; in this way the kinetic parameters for PARP-1, tankyrase-1, and VPARP were calculated (see Table 1 and FIG. 2). […]
(§4) The plate was divided in half with protein added to half the wells and the other half serving as blanks containing only PARP assay buffer and substrate. […] The plate was then read on a SpectraMax plus 384 UV/Vis plate reader (Molecular Devices), at 405 nm for 2 hours with observations performed once every minute. […]

bovine serum albumin = bovine serum albumin (Bos taurus, UniProt P02769); assay: Control experiment with BSA (non-specific substrate cleavage); format: biochemical; conditions: 20 μM BSA, monitored 2 hours
Chain of bovine serum albumin (P02769 25-607): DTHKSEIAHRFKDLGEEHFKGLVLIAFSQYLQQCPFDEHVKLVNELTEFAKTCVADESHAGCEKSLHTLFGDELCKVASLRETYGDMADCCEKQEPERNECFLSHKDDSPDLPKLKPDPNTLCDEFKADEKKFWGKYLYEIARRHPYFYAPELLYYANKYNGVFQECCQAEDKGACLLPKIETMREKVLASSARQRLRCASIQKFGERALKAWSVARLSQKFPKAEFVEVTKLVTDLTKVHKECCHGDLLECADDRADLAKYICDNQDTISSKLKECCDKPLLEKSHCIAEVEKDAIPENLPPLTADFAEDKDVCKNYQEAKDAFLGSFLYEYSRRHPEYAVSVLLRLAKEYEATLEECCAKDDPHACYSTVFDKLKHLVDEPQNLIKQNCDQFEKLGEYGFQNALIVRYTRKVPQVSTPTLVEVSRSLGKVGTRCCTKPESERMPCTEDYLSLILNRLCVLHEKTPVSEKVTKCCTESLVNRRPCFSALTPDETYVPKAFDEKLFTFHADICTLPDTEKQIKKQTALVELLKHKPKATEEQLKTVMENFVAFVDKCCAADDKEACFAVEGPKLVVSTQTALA
Protocol: While exact kinetic parameters for PARP-1 can vary with the assay used, for PARP-1 the KM value with ADP-ribose-pNP is consistent with that of the natural β-NAD^+ substrate, while the Vmax is approximately 100 fold lower with the calorimetric substrate (see Table 1). […] To our knowledge, no data is available on the kinetic parameters of VPARP with β-NAD^+.
Control experiment with BSA. To determine that substrate cleavage is specific to the PARP family of enzymes, 16 μL of BSA was added to 81.5 μL of PARP assay buffer in a 96 well plate so that the final concentration was 20 μM in protein. The experiment was performed in triplicate along with controls that contained PARP assay buffer only. To both the wells containing only buffer or buffer and BSA, 2.5 μL of a 10 mM stock of the substrate was added to start the reaction. The plate was monitored at 405 nm for 2 hours.

PARP-1 [2] = target: T3, PARP-1 (Homo sapiens, UniProt P09874); assay: Continuous colorimetric PARP kinetic assay with ADP-ribose-pNP, PARP-1; format: biochemical; parameters: purchased Trevigen
T3 sequence (P09874 whole entry): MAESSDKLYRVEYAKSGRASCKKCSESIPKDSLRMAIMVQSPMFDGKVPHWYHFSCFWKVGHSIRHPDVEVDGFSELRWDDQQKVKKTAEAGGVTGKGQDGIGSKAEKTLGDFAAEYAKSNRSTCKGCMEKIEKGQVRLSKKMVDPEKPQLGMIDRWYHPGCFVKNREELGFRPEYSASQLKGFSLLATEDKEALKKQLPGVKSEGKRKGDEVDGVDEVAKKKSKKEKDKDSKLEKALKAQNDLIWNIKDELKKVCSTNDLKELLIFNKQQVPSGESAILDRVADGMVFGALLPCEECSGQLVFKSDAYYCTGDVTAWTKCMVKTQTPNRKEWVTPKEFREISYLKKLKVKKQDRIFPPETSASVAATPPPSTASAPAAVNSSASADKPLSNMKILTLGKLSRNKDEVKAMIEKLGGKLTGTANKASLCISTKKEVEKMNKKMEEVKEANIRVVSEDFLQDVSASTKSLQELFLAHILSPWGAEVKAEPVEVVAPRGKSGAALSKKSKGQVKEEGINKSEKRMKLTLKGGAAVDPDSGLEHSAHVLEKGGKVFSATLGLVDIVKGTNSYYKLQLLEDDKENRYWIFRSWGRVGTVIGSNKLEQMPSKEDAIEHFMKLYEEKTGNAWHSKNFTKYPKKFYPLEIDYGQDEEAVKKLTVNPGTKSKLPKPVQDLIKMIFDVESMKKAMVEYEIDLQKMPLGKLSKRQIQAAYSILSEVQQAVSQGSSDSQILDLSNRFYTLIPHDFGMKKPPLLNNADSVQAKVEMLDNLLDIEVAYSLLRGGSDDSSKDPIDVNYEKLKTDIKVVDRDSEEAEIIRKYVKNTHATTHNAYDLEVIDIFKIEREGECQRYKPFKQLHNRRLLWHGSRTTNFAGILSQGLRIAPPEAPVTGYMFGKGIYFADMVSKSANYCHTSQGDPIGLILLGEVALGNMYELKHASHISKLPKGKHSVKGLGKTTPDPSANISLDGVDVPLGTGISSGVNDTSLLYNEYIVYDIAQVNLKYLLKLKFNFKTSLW
Protocol: as §1
Preparation of damaged DNA for PARP-1. […]
Kinetics of PARP-1. […] The plate was then read on a SpectraMax plus UV/Vis plate reader (Molecular Devices), at 405 nm for 2 hours, reading once every minute with mixing between reads.
as §2

tankyrase-1 [3] = target: T4, tankyrase-1 (Homo sapiens, UniProt O95271); conditions: tankyrase-1 literature, β-NAD+ as substrate; cited from earlier work
T4 sequence (O95271 1-1327): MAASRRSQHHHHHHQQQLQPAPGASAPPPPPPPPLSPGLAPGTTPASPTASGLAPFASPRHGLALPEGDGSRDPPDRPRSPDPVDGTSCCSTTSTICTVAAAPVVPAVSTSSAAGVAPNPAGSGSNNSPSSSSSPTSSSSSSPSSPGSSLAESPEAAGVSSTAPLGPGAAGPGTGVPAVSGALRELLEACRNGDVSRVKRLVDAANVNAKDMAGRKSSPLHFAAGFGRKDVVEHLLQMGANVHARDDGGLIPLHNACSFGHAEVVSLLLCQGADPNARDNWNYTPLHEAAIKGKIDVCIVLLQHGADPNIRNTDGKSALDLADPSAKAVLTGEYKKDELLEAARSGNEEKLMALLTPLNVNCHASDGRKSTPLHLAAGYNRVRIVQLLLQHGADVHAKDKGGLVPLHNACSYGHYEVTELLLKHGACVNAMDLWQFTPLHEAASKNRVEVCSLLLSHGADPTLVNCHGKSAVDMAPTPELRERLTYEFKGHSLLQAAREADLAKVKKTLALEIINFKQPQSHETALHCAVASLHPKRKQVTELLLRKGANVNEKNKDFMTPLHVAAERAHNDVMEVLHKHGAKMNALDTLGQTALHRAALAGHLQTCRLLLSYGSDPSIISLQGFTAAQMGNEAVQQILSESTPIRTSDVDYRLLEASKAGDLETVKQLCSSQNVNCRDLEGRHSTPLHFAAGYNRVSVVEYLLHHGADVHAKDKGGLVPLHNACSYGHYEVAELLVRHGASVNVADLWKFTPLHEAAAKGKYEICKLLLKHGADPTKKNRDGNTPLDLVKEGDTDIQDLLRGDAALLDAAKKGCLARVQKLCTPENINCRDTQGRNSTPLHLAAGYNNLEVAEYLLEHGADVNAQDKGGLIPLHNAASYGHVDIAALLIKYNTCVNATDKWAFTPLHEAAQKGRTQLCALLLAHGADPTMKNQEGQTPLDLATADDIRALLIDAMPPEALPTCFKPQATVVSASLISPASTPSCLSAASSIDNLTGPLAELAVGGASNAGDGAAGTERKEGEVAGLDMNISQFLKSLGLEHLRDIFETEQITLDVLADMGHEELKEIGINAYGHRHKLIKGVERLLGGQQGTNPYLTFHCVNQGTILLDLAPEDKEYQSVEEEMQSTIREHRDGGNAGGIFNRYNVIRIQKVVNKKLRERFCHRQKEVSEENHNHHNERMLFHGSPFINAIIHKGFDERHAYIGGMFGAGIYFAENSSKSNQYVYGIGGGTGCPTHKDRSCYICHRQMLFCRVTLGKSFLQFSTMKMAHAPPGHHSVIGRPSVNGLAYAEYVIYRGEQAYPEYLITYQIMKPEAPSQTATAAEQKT

PARP-1 [4] = target: T3, PARP-1; parameters: purchased Trevigen; conditions: PARP-1 literature, natural β-NAD+ substrate; cited from earlier work
[5] = system: T5, Nc1ncnc2c1ncn2[C@@H]1O[C@H](COP(=O)(O)OP(=O)(O)OC[C@H]2O[C@@H](Oc3ccc([N+](=O)[O-])cc3)C(O)C2O)C(O)C1O; assay: Continuous colorimetric PARP kinetic assay with ADP-ribose-pNP, PARP-1; format: biochemical; conditions: other: PARP-1 activated with DNase digested DNA; substrate ADP-ribose-pNP; 405 nm; pH 8.0
T5 construct: purchased Trevigen
Protocol: as §1
Preparation of damaged DNA for PARP-1. 500 μL of Herringsperm DNA (10 mg/ml) was added to 100 mL DNase buffer (400 mM Tris-HCl, 100 mM MgSO4, and 10 mM CaCl2, pH 8.0), along with 50 μL of DNase (1 unit/mL). This solution was first incubated at 37° C. for 1 minute and then heated at 90° C. for 20 minutes to inactivate the DNase. Damaged DNA was used without any further purification.
Kinetics of PARP-1. A 160 μL volume of PARP-1 (0.45 mg/mL) was premixed with 262.4 μL of the damaged herringsperm DNA and 2777.6 μl of PARP assay buffer. This mixture (known as activated PARP in assay buffer) was allowed to equilibrate on ice for 4 hours. The ADP-ribose-pNP colorimetric substrate was diluted from a 5000 μM stock in PARP assay buffer directly into the wells of a 96 well plate. […] The plate was then read on a SpectraMax plus UV/Vis plate reader (Molecular Devices), at 405 nm for 2 hours, reading once every minute with mixing between reads.
as §2

[6] = substrate: Nc1ncnc2c1ncn2[C@@H]1O[C@H](COP(=O)(O)OP(=O)(O)OC[C@H]2O[C@@H](Oc3ccc([N+](=O)[O-])cc3)C(O)C2O)C(O)C1O; assay: Continuous colorimetric PARP kinetic assay with ADP-ribose-pNP, VPARP active domain; format: biochemical; conditions: other: VPARP active domain; substrate ADP-ribose-pNP; 405 nm
Protocol: as §3, §4

[7] = tankyrase-1, versus literature values
[8] = tankyrase-1 active domain, substrate ADP-ribose-pNP, 405 nm

Molecule: Nc1ncnc2c1ncn2[C@@H]1O[C@H](COP(=O)(O)OP(=O)(O)OC[C@H]2O[C@@H](Oc3ccc([N+](=O)[O-])cc3)C(O)C2O)C(O)C1O (stereo partly shown) [ADP-ribose-pNP]
- KM fold lower than literature value with β-NAD+ as substrate (tankyrase-1 [1]; [7]): approximately 18 fold
- Vmax compared to literature values with β-NAD+ as substrate (tankyrase-1 [1]; [7]): significantly lower
- Km (tankyrase-1 [1]; [8]): 82 µM
- Vmax (tankyrase-1 [1]; [8]): 1.81e-05 µmol/min/mg
- kcat (tankyrase-1 [1]; [8]): 1.88e-05 s⁻¹
- Vmax (VPARP): 2.03e-06 µmol/min/mg
- signal at 405 nm on incubation with bovine serum albumin (bovine serum albumin): no signal
- Vmax fold lower with colorimetric substrate than with natural β-NAD+ substrate (PARP-1 [2]; PARP-1, versus literature values): approximately 100 fold
- Vmax (PARP-1 [2]; PARP-1 activated with DNase digested DNA, substrate ADP-ribose-pNP, 405 nm): 0.0013 µmol/min/mg

Molecule: NC(=O)c1ccc[n+]([C@@H]2O[C@H](COP(=O)([O-])OP(=O)(O)OC[C@H]3O[C@@H](n4cnc5c(N)ncnc54)[C@H](O)[C@@H]3O)[C@@H](O)[C@H]2O)c1 [β-NAD^+, nicotinamide adenine dinucleotide]
- Km (tankyrase-1 [3]): 1500 µM
- kcat (tankyrase-1 [3]): 0.71 s⁻¹
- Km (PARP-1 [4]): 59 to 278 µM
- Vmax (PARP-1 [4]): 0.2 to 2.4 µmol/min/mg
- kcat (PARP-1 [4]): 0.41 s⁻¹

Molecule: PARP-1 (Homo sapiens)
- Km [5]: 151 µM
- Vmax [5]: 0.0013 µmol/min/mg
- kcat [5]: 0.025 s⁻¹

B1: VPARP (Homo sapiens) (protein)
chain: T2 sequence (Q9UKK3 369-573 limits assumed)
notes: The plasmid with the catalytic domain of VPARP, pET28b-p193cat; made in house; host or cells: E. coli Rosetta
- Km [6]: 46 µM
- Vmax [6]: 2.03e-06 µmol/min/mg

Source: patent US20080176261A1, “Colorimetric Substrate and Methods for Detecting Poly(ADP-ribose) Polymerase Activity including PARP Enzymes PARP-1, VPARP, and Tankyrase-1” (THE BOARD OF TRUSTEES OF THE UNIVERSITY OF ILLINOIS, priority 2007, published 2008)
